{"source": "patent US8137705B2", "about": "(priority 2005, dated 2012)", "assay_type_in_all_cases": "cell-based", "key": {"[1]": {"test_system": "E. coli O157:H7", "assay": "E. coli O157:H7 counts in water containing rumen content or feces treated with chemicals or chemical combinations", "conditions": "21° C.; for E. coli O157:H7 counts (log10 cfu/ml) at min 0: 0 min; for E. coli O157:H7 counts (log10 cfu/ml) at min 2: 2 min; for E. coli O157:H7 counts (log10 cfu/ml) at min 5: 5 min; for E. coli O157:H7 counts (log10 cfu/ml) at min 10: 10 min; for E. coli O157:H7 counts (log10 cfu/ml) at min 20: 20 min; for E. coli O157:H7 counts (log10 cfu/ml) at min 30: 30 min; for E. coli O157:H7 counts (log10 cfu/ml) at min 60: 60 min; for E. coli O157:H7 counts (log10 cfu/ml) at min 120: 120 min"}, "[2]": {"test_system": "E. coli O26:H11", "assay": "E. coli O26:H11 counts in water containing rumen content or feces treated with chemical combinations", "conditions": "21° C.; for E. coli O26:H11 counts (log10 cfu/ml) at min: 0: 0 min; for E. coli O26:H11 counts (log10 cfu/ml) at min: 2: 2 min; for E. coli O26:H11 counts (log10 cfu/ml) at min: 5: 5 min; for E. coli O26:H11 counts (log10 cfu/ml) at min: 10: 10 min; for E. coli O26:H11 counts (log10 cfu/ml) at min: 20: 20 min; for E. coli O26:H11 counts (log10 cfu/ml) at min: 30: 30 min; for E. coli O26:H11 counts (log10 cfu/ml) at min: 60: 60 min; for E. coli O26:H11 counts (log10 cfu/ml) at min: 120: 120 min"}, "[3]": {"test_system": "E. coli O111:NM", "assay": "E. coli O111:NM counts in water containing rumen content or feces treated with chemical combinations", "conditions": "21° C.; for E. coli O111:NM counts (log10 cfu/ml) at min 0: 0 min; for E. coli O111:NM counts (log10 cfu/ml) at min 2: 2 min; for E. coli O111:NM counts (log10 cfu/ml) at min 5: 5 min; for E. coli O111:NM counts (log10 cfu/ml) at min 10: 10 min; for E. coli O111:NM counts (log10 cfu/ml) at min 20: 20 min; for E. coli O111:NM counts (log10 cfu/ml) at min 30: 30 min; for E. coli O111:NM counts (log10 cfu/ml) at min 60: 60 min; for E. coli O111:NM counts (log10 cfu/ml) at min 120: 120 min"}, "[4]": {"conditions": "water containing feces (20:1, v/w)"}, "[5]": {"conditions": "water containing rumen content (10:1, v/w)"}}, "data": [{"smiles": "O=C([O-])c1ccccc1.[Na+]", "note": "[0.1% sodium benzoate, sodium benzoate]", "values": [{"measurement": "E. coli O157:H7 counts (log10 cfu/ml) at min 0", "setting": "[1]; [4]", "result": 5.7, "unit": "log10 cfu/ml"}, {"measurement": "E. coli O157:H7 counts (log10 cfu/ml) at min 2", "setting": "[1]; [4]", "result": 5.6, "unit": "log10 cfu/ml"}, {"measurement": "E. coli O157:H7 counts (log10 cfu/ml) at min 5", "setting": "[1]; [4]", "result": 5.4, "unit": "log10 cfu/ml"}, {"measurement": "E. coli O157:H7 counts (log10 cfu/ml) at min 10", "setting": "[1]; [4]", "result": 5.6, "unit": "log10 cfu/ml"}, {"measurement": "E. coli O157:H7 counts (log10 cfu/ml) at min 20", "setting": "[1]; [4]", "result": 5.5, "unit": "log10 cfu/ml"}, {"measurement": "E. coli O157:H7 counts (log10 cfu/ml) at min 30", "setting": "[1]; [4]", "result": 5.4, "unit": "log10 cfu/ml"}, {"measurement": "E. coli O157:H7 counts (log10 cfu/ml) at min 60", "setting": "[1]; [4]", "result": 5.5, "unit": "log10 cfu/ml"}, {"measurement": "E. coli O157:H7 counts (log10 cfu/ml) at min 120", "setting": "[1]; [4]", "result": 5.6, "unit": "log10 cfu/ml"}, {"measurement": "E. coli O157:H7 counts (log10 cfu/ml) at min 0", "setting": "[1]; [5]", "result": 5.9, "unit": "log10 cfu/ml"}, {"measurement": "E. coli O157:H7 counts (log10 cfu/ml) at min 2", "setting": "[1]; [5]", "result": 6.0, "unit": "log10 cfu/ml"}, {"measurement": "E. coli O157:H7 counts (log10 cfu/ml) at min 5", "setting": "[1]; [5]", "result": 6.0, "unit": "log10 cfu/ml"}, {"measurement": "E. coli O157:H7 counts (log10 cfu/ml) at min 10", "setting": "[1]; [5]", "result": 5.9, "unit": "log10 cfu/ml"}, {"measurement": "E. coli O157:H7 counts (log10 cfu/ml) at min 20", "setting": "[1]; [5]", "result": 6.0, "unit": "log10 cfu/ml"}, {"measurement": "E. coli O157:H7 counts (log10 cfu/ml) at min 30", "setting": "[1]; [5]", "result": 5.9, "unit": "log10 cfu/ml"}, {"measurement": "E. coli O157:H7 counts (log10 cfu/ml) at min 60", "setting": "[1]; [5]", "result": 6.0, "unit": "log10 cfu/ml"}, {"measurement": "E. coli O157:H7 counts (log10 cfu/ml) at min 120", "setting": "[1]; [5]", "result": 6.1, "unit": "log10 cfu/ml"}, {"measurement": "E. coli O26:H11 counts (log10 cfu/ml) at min: 0", "setting": "[2]; [4]", "result": 5.5, "unit": "log10 cfu/ml"}, {"measurement": "E. coli O26:H11 counts (log10 cfu/ml) at min: 2", "setting": "[2]; [4]", "result": 5.4, "unit": "log10 cfu/ml"}, {"measurement": "E. coli O26:H11 counts (log10 cfu/ml) at min: 5", "setting": "[2]; [4]", "result": 5.5, "unit": "log10 cfu/ml"}, {"measurement": "E. coli O26:H11 counts (log10 cfu/ml) at min: 10", "setting": "[2]; [4]", "result": 5.4, "unit": "log10 cfu/ml"}, {"measurement": "E. coli O26:H11 counts (log10 cfu/ml) at min: 20", "setting": "[2]; [4]", "result": 5.5, "unit": "log10 cfu/ml"}, {"measurement": "E. coli O26:H11 counts (log10 cfu/ml) at min: 30", "setting": "[2]; [4]", "result": 5.4, "unit": "log10 cfu/ml"}, {"measurement": "E. coli O26:H11 counts (log10 cfu/ml) at min: 60", "setting": "[2]; [4]", "result": 5.5, "unit": "log10 cfu/ml"}, {"measurement": "E. coli O26:H11 counts (log10 cfu/ml) at min: 120", "setting": "[2]; [4]", "result": 5.4, "unit": "log10 cfu/ml"}, {"measurement": "E. coli O26:H11 counts (log10 cfu/ml) at min: 0", "setting": "[2]; [5]", "result": 5.6, "unit": "log10 cfu/ml"}, {"measurement": "E. coli O26:H11 counts (log10 cfu/ml) at min: 2", "setting": "[2]; [5]", "result": 5.5, "unit": "log10 cfu/ml"}, {"measurement": "E. coli O26:H11 counts (log10 cfu/ml) at min: 5", "setting": "[2]; [5]", "result": 5.4, "unit": "log10 cfu/ml"}, {"measurement": "E. coli O26:H11 counts (log10 cfu/ml) at min: 10", "setting": "[2]; [5]", "result": 5.5, "unit": "log10 cfu/ml"}, {"measurement": "E. coli O26:H11 counts (log10 cfu/ml) at min: 20", "setting": "[2]; [5]", "result": 5.5, "unit": "log10 cfu/ml"}, {"measurement": "E. coli O26:H11 counts (log10 cfu/ml) at min: 30", "setting": "[2]; [5]", "result": 5.5, "unit": "log10 cfu/ml"}, {"measurement": "E. coli O26:H11 counts (log10 cfu/ml) at min: 60", "setting": "[2]; [5]", "result": 5.4, "unit": "log10 cfu/ml"}, {"measurement": "E. coli O26:H11 counts (log10 cfu/ml) at min: 120", "setting": "[2]; [5]", "result": 5.5, "unit": "log10 cfu/ml"}, {"measurement": "E. coli O111:NM counts (log10 cfu/ml) at min 0", "setting": "[3]; [4]", "result": 5.6, "unit": "log10 cfu/ml"}, {"measurement": "E. coli O111:NM counts (log10 cfu/ml) at min 2", "setting": "[3]; [4]", "result": 5.6, "unit": "log10 cfu/ml"}, {"measurement": "E. coli O111:NM counts (log10 cfu/ml) at min 5", "setting": "[3]; [4]", "result": 5.6, "unit": "log10 cfu/ml"}, {"measurement": "E. coli O111:NM counts (log10 cfu/ml) at min 10", "setting": "[3]; [4]", "result": 5.7, "unit": "log10 cfu/ml"}, {"measurement": "E. coli O111:NM counts (log10 cfu/ml) at min 20", "setting": "[3]; [4]", "result": 5.6, "unit": "log10 cfu/ml"}, {"measurement": "E. coli O111:NM counts (log10 cfu/ml) at min 30", "setting": "[3]; [4]", "result": 5.5, "unit": "log10 cfu/ml"}, {"measurement": "E. coli O111:NM counts (log10 cfu/ml) at min 60", "setting": "[3]; [4]", "result": 5.5, "unit": "log10 cfu/ml"}, {"measurement": "E. coli O111:NM counts (log10 cfu/ml) at min 120", "setting": "[3]; [4]", "result": 5.6, "unit": "log10 cfu/ml"}, {"measurement": "E. coli O111:NM counts (log10 cfu/ml) at min 0", "setting": "[3]; [5]", "result": 5.6, "unit": "log10 cfu/ml"}, {"measurement": "E. coli O111:NM counts (log10 cfu/ml) at min 2", "setting": "[3]; [5]", "result": 5.6, "unit": "log10 cfu/ml"}, {"measurement": "E. coli O111:NM counts (log10 cfu/ml) at min 5", "setting": "[3]; [5]", "result": 5.5, "unit": "log10 cfu/ml"}, {"measurement": "E. coli O111:NM counts (log10 cfu/ml) at min 10", "setting": "[3]; [5]", "result": 5.6, "unit": "log10 cfu/ml"}, {"measurement": "E. coli O111:NM counts (log10 cfu/ml) at min 20", "setting": "[3]; [5]", "result": 5.6, "unit": "log10 cfu/ml"}, {"measurement": "E. coli O111:NM counts (log10 cfu/ml) at min 30", "setting": "[3]; [5]", "result": 5.5, "unit": "log10 cfu/ml"}, {"measurement": "E. coli O111:NM counts (log10 cfu/ml) at min 60", "setting": "[3]; [5]", "result": 5.4, "unit": "log10 cfu/ml"}, {"measurement": "E. coli O111:NM counts (log10 cfu/ml) at min 120", "setting": "[3]; [5]", "result": 5.5, "unit": "log10 cfu/ml"}]}]}
